Earlier results as cited in patent US12133876B2, “TryNOVID boosts immune system against viruses and variants” (priority 2022, dated 2024).

Columns and labels:
enveloped viruses = settings: Coronavirus, HIV, Measles virus, Herpes simplex virus type 1 and 2, Influenza virus and other listed enveloped viruses (Lieberman et al., 2006)
COVID-19 = settings: high dose; patients requiring hospitalization due to proven COVID-19; plus best-available therapy versus best-available therapy
SARS-COV-2 = settings: binding to SARS-COV-2 (Kulkarni et al., 2020)

| SMILES | binding affinities in molecular docking (SARS-COV-2) | other results |
| --- | --- | --- |
| CCCCCCCCCCCC(=O)OCC(O)CO (stereo not shown) [Monolaurin, glycerol monolaurate] |  | inactivation of enveloped viruses (enveloped viruses): able to inactivate |
| C=C1CC[C@H](O)C/C1=C/C=C1\CCC[C@]2(C)[C@@H]([C@H](C)CCCC(C)(C)O)CC[C@@H]12 [calcifediol, 25-hydroxyvitamin D] |  | need for ICU treatment (COVID-19): significantly reduced |
| C=C1C2CCC(C2)C1(C)C (stereo not shown) [camphene] | good binding affinities |  |
| CC1CCC(C(C)C)C(O)C1 (stereo not shown) [menthol] | good binding affinities |  |
| C=CC(C)=CCC=C(C)C [ocimene] | good binding affinities |  |
| CC(C)=C1CC[C@@H](C)CC1=O [pulegone] | good binding affinities |  |
| Cc1ccc(C(C)C)c(O)c1 [thymol] | good binding affinities |  |
